# System: hematopoietic stem/progenitor cell engraftment
# Assay: adult zebrafish whole kidney marrow competitive transplantation assay
# Assay type: in vivo
# Conditions: for engraftment signal in pilot screen of 10 bioactive compounds: by four weeks post-transplant, 10 recipients per treatment; for average G/R / percentage of positive recipients: green marrow incubated in vitro 4 hrs, mixed with red marrow 1:4, 4 wpt, compared with DMSO control; for engraftment: by 4 weeks post transplant
# From the text: A transparent adult zebrafish, casper, was used as a transplantation recipient. Casper is a double homozygous pigment mutant for the nacre allele (devoid of melanocytes) and the roy allele (devoid of iridophores and reduced melanoyctyes), which allows direct visualization of GFP labeled hematopoietic stem cell homing and engraftment without killing the recipients. Two marrows are used: Tg(β-actin:GFP) and Red GloFish® respectively to compete with each other at varying ratios e.g., 1:4, which can generate robust competition between the two donors. In one embodiment, the red marrow is the competitor, as well as an internal control for the transplant. At different timepoints post-transplant, the recipients are anesthetized and two pictures for each recipient are taken by a fluorescence stereomicroscope with GFP/DsRed filters individually. Images are analyzed by software, such as ImageJ, which can quantify the GFP/DsRed fluorescence intensity. The relative engraftment efficiency of the manipulated green marrow is measured by the ratio of the GFP intensity over the DsRed intensity within the same kidney region after background subtraction (labeled as G/R).
# A double-color labeled competitive transplantation assay was developed, as shown by the flow chart in FIG. 1A. GFP+ and DsRed2+ marrow cells are isolated from Tg(β-actin:GFP) and commercially available Red GloFish®. The two donor populations are mixed at a certain ratio and injected into sublethally irradiated casper recipients retro-orbitally. The DsRed2+ marrow is used as the competitor. Four weeks later, the engraftment is visualized by fluorescence dissection scope. Pictures of GFP and DsRed engraftment are taken for each recipient and analyzed by ImageJ. The kidney region is manually selected and the average fluorescence intensities of both green and red are measured within the same region. The average background intensity is measured in a region outside the fish, and subtracted from the kidney intensity. The calculation of the relative engraftment is shown by the equation in FIG. 1B.
# Adult zebrafish donors are anaesthetized with 0.2% tricaine before blood and kidney collection. Peripheral blood is obtained from adult casper by cardiac puncture with micropipette tips coated with heparin and collected into 0.9×PBS containing 5% FCS. About 3-5 million red blood cells are harvested from one donor. To dissect whole kidney marrow (WKM), a ventral midline incision is made on the donor fish. Whole kidney is dissected out and placed into ice-cold 0.9×PBS containing 5% FCS. Single-cell suspensions are generated by aspiration followed by filtering through a […] nylon mesh filter into a 50 ml conical tube. The flow-though part is diluted with a final volume of 25 ml and centrifuged at 1,500 rpm for 8 minutes. The supernatant is discarded and the pellet cells are resuspended in 1 ml 0.9×PBS containing 5% FCS. The number of viable cells are counted with a hemocytometer. […] Finally, the peripheral blood and kidney marrow cells are centrifuged at 1,500 rpm for 8 minutes, resuspended in 0.9×PBS containing 5% FCS and mixed at a certain ratio and concentration. Casper recipients are anesthetized in tricaine. 4 μl of the cell suspension mixture described above is injected into the circulation retro-orbitally through a Hamilton syringe (26s gauge, 10 μl volume). […] Transplanted recipients can be anesthetized in tricaine and visualized over time on a Zeiss Discovery V8 stereomicroscope with a 1.2× PlanApo lens and GFP/DsRed filters. Images are captured using AxioVision software and for each recipient, two images are taken with GFP or DsRed filter respectively. The images are all saved in .tif format and analyzed using ImageJ software.
SMILES,score in the competitive transplant model (at 3 months),score in the competitive transplant model (at 4 weeks),engraftment signal in pilot screen of 10 bioactive compounds,average G/R,percentage of positive recipients,engraftment (green marrow incubated in vitro with 10 μM at room temperature for 2-4 hours),engraftment (green marrow incubated in vitro with 0.5 μM at room temperature for 2-4 hours)
"CCCCC(C)(C)[C@H](O)/C=C/[C@H]1[C@H](O)CC(=O)[C@@H]1C/C=C\CCCC(=O)O [dmPGE2, 16-,16-dimethyl Prostaglandin E2]",positive,positive,enhanced signal above the rest of the chemicals tested,significantly increased,significantly increased,increase engraftment,–
"O=C1Nc2cc(Br)ccc2C1=C1Nc2ccccc2C1=NO [BIO, 6-bromorindirubin-3′-oxime]",positive,positive,enhanced signal above the rest of the chemicals tested,significantly increased,significantly increased,–,increase engraftment
